Experimental data: paper PMC6509188, “Enterococcus faecalis Encodes an Atypical Auxiliary Acyl Carrier Protein Required for Efficient Regulation of Fatty Acid Synthesis by Exogenous Fatty Acids” (mBio, 2019)

How the values were obtained:
Type in all cases: biochemical
AcpS = target: T1, AcpS (Enterococcus faecalis, UniProt Q820V0); assay: conversion of apo-ACP to holo-ACP, PAGE; details: acceptor apo-AcpA or apo-AcpB of E. faecalis; Mg2+, Tris-HCl pH 8.0, 37 C
T1 construct: N-terminal hexahistidine tag, expressed from pZL311, nickel-chelate purified
T1 sequence (Q820V0 1-117): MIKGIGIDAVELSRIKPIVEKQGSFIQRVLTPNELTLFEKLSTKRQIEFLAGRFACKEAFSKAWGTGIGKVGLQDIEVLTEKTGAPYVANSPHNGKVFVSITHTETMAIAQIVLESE

PlsX = target: T2, PlsX (Enterococcus faecalis, UniProt Q82ZE8); assay: acyl transfer to holo-ACP, urea-PAGE; details: acyl acceptor holo-AcpB of E. faecalis; 0.05 uM PlsX, 0.75 mM Mg2+, 0.5 mM DTT, 0.1 M HEPES pH 7.0, 37 C
T2 construct: N-terminal hexahistidine tag, expressed from pZL391 in E. coli, purified
T2 sequence (Q82ZE8 1-333): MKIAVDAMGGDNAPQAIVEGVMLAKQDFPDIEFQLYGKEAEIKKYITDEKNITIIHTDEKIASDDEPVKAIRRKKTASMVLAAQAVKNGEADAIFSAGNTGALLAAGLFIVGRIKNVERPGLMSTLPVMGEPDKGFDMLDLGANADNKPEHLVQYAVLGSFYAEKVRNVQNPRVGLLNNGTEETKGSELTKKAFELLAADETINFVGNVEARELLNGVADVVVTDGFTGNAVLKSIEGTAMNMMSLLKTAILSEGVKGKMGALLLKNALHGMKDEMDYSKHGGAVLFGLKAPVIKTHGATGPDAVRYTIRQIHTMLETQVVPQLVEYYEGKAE

AasS = target: T3, AasS (Vibrio harveyi, UniProt Q00IB3); assay: acyl-ACP synthesis, urea-PAGE; details: acceptor holo-AcpA or holo-AcpB of E. faecalis; 2 mM ATP, 200 uM acid, 37 C
T3 construct: N-terminal hexahistidine tag, expressed from pYFJ84, nickel-chelate purified; used to prepare acyl-ACPs
T3 sequence (Q00IB3 entry or part of it): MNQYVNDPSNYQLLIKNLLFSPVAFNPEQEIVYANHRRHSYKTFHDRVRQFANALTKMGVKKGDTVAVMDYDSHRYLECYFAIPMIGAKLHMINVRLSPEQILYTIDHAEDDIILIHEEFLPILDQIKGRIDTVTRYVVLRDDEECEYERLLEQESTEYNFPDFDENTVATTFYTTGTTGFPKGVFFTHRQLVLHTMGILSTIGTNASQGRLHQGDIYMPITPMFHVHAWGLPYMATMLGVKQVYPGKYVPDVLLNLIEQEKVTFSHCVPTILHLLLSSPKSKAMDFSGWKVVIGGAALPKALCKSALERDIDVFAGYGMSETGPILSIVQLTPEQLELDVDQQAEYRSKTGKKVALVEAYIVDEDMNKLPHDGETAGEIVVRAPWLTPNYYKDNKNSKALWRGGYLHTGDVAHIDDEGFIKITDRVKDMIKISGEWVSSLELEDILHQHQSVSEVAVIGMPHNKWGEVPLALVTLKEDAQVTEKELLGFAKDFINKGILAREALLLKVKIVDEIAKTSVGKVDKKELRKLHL

SMILES: CC(C)(COP(=O)(O)OP(=O)(O)OC[C@H]1O[C@@H](n2cnc3c(N)ncnc32)[C@H](O)[C@@H]1OP(=O)(O)O)[C@@H](O)C(=O)NCCC(=O)NCCS [CoA]
- conversion of apo-ACP to holo-ACP, PAGE (AcpS): treated with E. faecalis AcpS and coenzyme A (CoA)

SMILES: CCCCCCCCCCCCCCCCCC(=O)OP(=O)(O)O [stearoyl-phosphate]
- acyl transfer to holo-ACP, urea-PAGE (PlsX): AcpB was fully converted into acyl-AcpB when stearoyl-phosphate (C18:0-PO4) or oleyl-phosphate (C18:1-PO4)

SMILES: CCCCCCC/C=C/C(=O)O [trans-2-decenoic acid]
- acyl-ACP synthesis, urea-PAGE (AasS): Incubation of the holo proteins with AasS, ATP, and trans-2-decenoic acid resulted in trans-2-decenoyl-AcpA
